Reference: US11167015B2, “Arginine and its use as a T cell modulator” (INSTITUTE FOR RESEARCH IN BIOMEDICINE, priority 2016, dated 2021)

Legend:
[1] = tested on: arginase; conditions: arginase inhibition; cited from earlier work
[2] = tested on: activated CD4+ T cells; experiment: 3H-arginine uptake assay and calculation of proteome incorporation; format: cell-based, human; conditions: 3 mM added as competitive uptake inhibitor, 15 minutes pulse, 3 day-activated CD4+ T cells
Protocol: (§1) FIG. 10. […] (A) Kinetics of T cell proliferation. Human naïve CD4+ T cells were labeled with CellTraceViolet (CTV) and activated in Ctrl medium or in L-Arg medium or in medium supplemented with 3 mM D-arginine or 3 mM L-arginine together with 3 mM L-lysine. Cell divisions were monitored at 48 h and 72 h by flow cytometry. (B) CTV-labeled CD4+ T cells were activated in normal medium or L-Arg medium and the dilution of CTV was measured over time by flow cytometry. n=5 from two donors. (C) 3H-L-arginine uptake by 3 day-activated CD4+ T cells during a 15 minutes pulse. Where indicated, 3 mM L-arginine, D-arginine or L-lysine was added to the culture medium as a competitive uptake inhibitor. n=7 for control, n=9 for L-Arg, n=5 for D-Arg, and n=9 for L-Lys. Bars represent the s.e.m.

[3] = tested on: human naïve CD4+ T cells; experiment: T cell proliferation (CellTrace Violet dilution); format: cell-based
Protocol: as §1

[4] = tested on: activated CD4+ T cells; experiment: IL-2 withdrawal assay and assessment of cell viability, CD4+ T cells; format: cell-based, human; conditions: for survival of activated CD4+ T cells in the absence of exogenous cytokines: metabolites 3 mM, except for spermidine 0.1 mM, 5 days after IL-2 withdrawal
Protocol: Naïve CD4 T cells were activated with plate-bound CD3 and CD28 antibodies. 48 h after activation IL-2 was added to culture media (500 U ml^−1). After a further 3 days of culturing, cells were washed, counted and equal cell numbers were plated in medium devoid of IL-2. The withdrawal medium was no longer supplemented with e.g. L-arginine. Cell viability was assessed with annexin V.

[5] = tested on: human naïve CD4+ T cells; experiment: kinetic metabolome analysis of activated T cells; format: cell-based; conditions: added to the culture medium at the same concentration as L-arginine (3 mM)
Protocol: (B) Differential analysis of the glycolytic pathway between naïve CD4^+ T cells cultured in L-Arg medium or Ctrl medium, 96 h after activation. Log 2 fold changes of proteins and metabolites are color-coded. […] 3-P-Glycerate and 2-P-Glycerate could not be distinguished as they have the same mass. (C) 72 h-activated T cells were plated in fresh medium and glucose consumption was determined enzymatically after 24 h; n=9 from three donors. (D) Seahorse experiment performed with activated (96 h) T cells from one donor. Oligomycin was injected after 56 min, FCCP after 96 min, and antimycin (to inhibit the respiratory chain) after 136 min. Data are representative of 5 independent experiments with different donors.
(A) Human naïve CD4^+ T cells were activated in normal medium or in L-Arg medium. Nitric oxide formation was measured using DAF-FM diacetate at different time points.
Naïve CD4^+ T cells were either analyzed directly after isolation or at different time points after activation with CD3 and CD28 antibodies. Cells were washed twice in 96-well plates with 75 mM ammonium carbonate at pH 7.4 and snap frozen in liquid nitrogen. Metabolites were extracted three times with hot (>70° C.) 70% ethanol. Extracts were analyzed by flow injection—time of flight mass spectrometry on an Agilent 6550 QTOF instrument operated in the negative mode, as described previously (Fuhrer et al., 2011). Typically 5,000-12,000 ions with distinct mass-to-charge (m/z) ratio could be identified in each batch of samples. Ions were putatively annotated by matching their measured mass to that of the compounds listed by the KEGG database for Homo sapiens, allowing a tolerance of 0.001 Da. Only deprotonated ions (without adducts) were considered in the analysis. In case of multiple matching, such as in the case of structural isomers, all candidates were retained.

[6] = tested on: 96 h-activated T cells; experiment: 13C-L-arginine metabolic tracing (metabolic flux experiments); format: cell-based, human; conditions: addition of arginase inhibitor, 13C6-L-arginine pulse
Protocol: FIG. 2. L-arginine is rapidly metabolized upon activation (A) Intracellular abundance of L-arginine in non-activated (non-act) and activated naïve CD4^+ T cells (CD3+CD28 antibodies). Boxplot, n=30 from three donors, each in a different color; a.u. arbitrary units. (B) Kinetics of ^3H-L-arginine uptake during a 15 min pulse. Box plot, n=5 from three donors. (C) Uptake, proteome incorporation and intracellular abundance of the indicated amino acids. Barplot (left): 5×10^4 cells were activated for 4 days and consumption of amino acids from medium was analyzed. Essential amino acids are in grey; n=4 from four donors, error bars represent s.e.m. […] Heat map (right): Intracellular amino acid abundance relative to naive T cells over time as determined by MS; n=30 from three donors. […] Black dots are metabolites that were not detected by MS. Only enzymes that were detected by MS are shown. […] 96 h-activated T cells were pulsed with ^13C6-L-arginine and the metabolic fate was analyzed by LC-MS/MS at different time points. AFL, Apparent fractional labeling; n=4 from two donors. ^13C Citrulline was not detected.
Naïve CD4^+ T cells were activated and 4 days, later extensively washed and pulsed with L-arginine free RPMI medium containing 1 mM [U-^13C]-L-Arginine hydrochloride (Sigma). […] Metabolites were extracted and analyzed by HILIC LC-MS/MS. […]

[7] = tested on: C56BL/6 wild type (Wt) or Arg2−/− T cells; experiment: In vitro T cell survival with wild type or Arg2-/- mouse T cells; format: cell-based; conditions: norNOHA 500 μM, 2 days after IL-2 withdrawal

N[C@@H](CSCCB(O)O)C(=O)O [BEC, S-(2-boronoethyl)-L-cysteine]
intracellular L-arginine levels [1]: increase intracellular L-arginine levels

N=C(N)NCCC[C@@H](N)C(=O)O [D-arginine]
L-arginine uptake [2]: inhibit L-arginine uptake
onset of proliferation ([3]; 3 mM in medium): not affected
survival of activated CD4+ T cells in the absence of exogenous cytokines [4]: decreased T cell survival significantly

NC(=O)C1CCCc2c1[nH]c1ccc(Cl)cc21 (centres unmarked) [Ex-527]
L-arginine-mediated increase in survival in the presence of the Sirtuin-1 inhibitor ([4]; Ex-527 5 μM added at activation): comparable to controls

Cl.N=C(N)NCCC[C@H](N)C(=O)O [L-arginine-HCl, L-arginine hydrochloride]
survival of activated CD4+ T cells in the absence of exogenous cytokines [4]: enhanced T cell survival to a similar extent

NC(=O)NCCC[C@H](N)C(=O)O [L-citrulline, reference compound]
effects on metabolism [5]: only had minor effects
survival of activated CD4+ T cells in the absence of exogenous cytokines [4]: had no effect

NCCCC[C@H](N)C(=O)O [L-lysine]
L-arginine uptake [2]: inhibit L-arginine uptake
onset of proliferation ([3]; 3 mM L-lysine added to L-arginine-supplemented cultures): not affected
survival of activated CD4+ T cells in the absence of exogenous cytokines [4]: decreased T cell survival significantly

N=C(N)NCCCCN [agmatine]
survival of activated CD4+ T cells in the absence of exogenous cytokines [4]: decreased T cell survival

CN(CC(=O)O)C(=N)N [creatine]
survival of activated CD4+ T cells in the absence of exogenous cytokines [4]: had no effect

[N]=O [nitric oxide]
T cell survival (role of nitric oxide) ([4]; nitric oxide synthase inhibitors DiMeArg or L-NAME at 1 mM): had no effect

N=C(NO)NCC[C@H](N)C(=O)O [norNOHA, N^ω-Hydroxy-nor-L-arginine]
conversion of L-arginine into agmatine [6]: did not affect
conversion of L-arginine into ornithine, putrescine, spermidine and proline [6]: markedly reduced
survival of Arg2−/− T cells after IL-2 withdrawal [7]: did not affect survival
survival of wild type T cells after IL-2 withdrawal [7]: increasing the survival
intracellular L-arginine levels [1]: increase intracellular L-arginine levels

O=C(O)[C@@H]1CCCN1 [proline, L-proline]
survival of activated CD4+ T cells in the absence of exogenous cytokines [4]: had no effect

NCCCCN [putrescine]
survival of activated CD4+ T cells in the absence of exogenous cytokines [4]: decreased T cell survival

NCCCCNCCCN [spermidine]
survival of activated CD4+ T cells in the absence of exogenous cytokines [4]: decreased T cell survival

NC(N)=O [urea]
survival of activated CD4+ T cells in the absence of exogenous cytokines [4]: had no effect
